From PubChem BioAssay AID1963980 (Molecular Pharmacology Branch, DTP, NCI, 2024)

System: 475296-252-R-J1-PDC spheroid viability
Experiment: Anticancer human tumor 475296-252-R-J1-PDC patient-derived rectal carcinoma cell line growth inhibition [PI3K]
Conditions: spheroids with HUVEC and MSC; for IC50: curve of first compound; for viability, T/C: stronger effect = lower value
Outline: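 Complex 3D spheroids (cancer cells + endothelial HUVEC + mesenchymal stem cells); drug pairs of targeted agent x inavolisib/alpelisib/duvelisib/copanlisib; half-log series from ~Cmax, max 10 microM if Cmax unknown; endpoint viability.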

[1] = second compound 0.00316 µM, first compound 0.000316 µM
[2] = second compound 0.00316 µM, first compound 0.001 µM
[3] = second compound 0.00316 µM, first compound 0.00316 µM
[4] = second compound 0.00316 µM, first compound 0.01 µM
[5] = second compound 0.00316 µM, first compound 0.0316 µM
[6] = second compound 0.00316 µM, first compound 0.1 µM
[7] = second compound 0.01 µM, first compound 0.000316 µM
[8] = second compound 0.01 µM, first compound 0.001 µM
[9] = second compound 0.01 µM, first compound 0.00316 µM
[10] = second compound 0.01 µM, first compound 0.01 µM
[11] = second compound 0.01 µM, first compound 0.0316 µM
[12] = second compound 0.01 µM, first compound 0.1 µM
[13] = second compound 0.0316 µM, first compound 0.000316 µM
[14] = second compound 0.0316 µM, first compound 0.001 µM
[15] = second compound 0.0316 µM, first compound 0.00316 µM
[16] = second compound 0.0316 µM, first compound 0.01 µM
[17] = second compound 0.0316 µM, first compound 0.0316 µM
[18] = second compound 0.0316 µM, first compound 0.1 µM
[19] = second compound 0.1 µM, first compound 0.000316 µM
[20] = second compound 0.1 µM, first compound 0.001 µM
[21] = second compound 0.1 µM, first compound 0.00316 µM
[22] = second compound 0.1 µM, first compound 0.01 µM
[23] = second compound 0.1 µM, first compound 0.0316 µM
[24] = second compound 0.1 µM, first compound 0.1 µM
[25] = second compound 0.316 µM, first compound 0.000316 µM
[26] = second compound 0.316 µM, first compound 0.001 µM
[27] = second compound 0.316 µM, first compound 0.00316 µM
[28] = second compound 0.316 µM, first compound 0.01 µM
[29] = second compound 0.316 µM, first compound 0.0316 µM
[30] = second compound 0.316 µM, first compound 0.1 µM
[31] = second compound 1 µM, first compound 0.000316 µM
[32] = second compound 1 µM, first compound 0.001 µM
[33] = second compound 1 µM, first compound 0.00316 µM
[34] = second compound 1 µM, first compound 0.01 µM
[35] = second compound 1 µM, first compound 0.0316 µM
[36] = second compound 1 µM, first compound 0.1 µM
[37] = second compound 0.00316 µM, first compound 0.316 µM
[38] = second compound 0.00316 µM, first compound 1 µM
[39] = second compound 0.00316 µM, first compound 3.16 µM
[40] = second compound 0.00316 µM, first compound 10 µM
[41] = second compound 0.01 µM, first compound 0.316 µM
[42] = second compound 0.01 µM, first compound 1 µM
[43] = second compound 0.01 µM, first compound 3.16 µM
[44] = second compound 0.01 µM, first compound 10 µM
[45] = second compound 0.0316 µM, first compound 0.316 µM
[46] = second compound 0.0316 µM, first compound 1 µM
[47] = second compound 0.0316 µM, first compound 3.16 µM
[48] = second compound 0.0316 µM, first compound 10 µM
[49] = second compound 0.1 µM, first compound 0.316 µM
[50] = second compound 0.1 µM, first compound 1 µM
[51] = second compound 0.1 µM, first compound 3.16 µM
[52] = second compound 0.1 µM, first compound 10 µM
[53] = second compound 0.316 µM, first compound 0.316 µM
[54] = second compound 0.316 µM, first compound 1 µM
[55] = second compound 0.316 µM, first compound 3.16 µM
[56] = second compound 0.316 µM, first compound 10 µM
[57] = second compound 1 µM, first compound 0.316 µM
[58] = second compound 1 µM, first compound 1 µM
[59] = second compound 1 µM, first compound 3.16 µM
[60] = second compound 1 µM, first compound 10 µM
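Note: spheroids exposed to agents for seven days before readout.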

For CC(=O)c1c(C)c2cnc(Nc3ccc(N4CCNCC4)cn3)nc2n(C2CCCC2)c1=O + COc1c(OCCCN2CCOCC2)ccc2c3n(c(=NC(=O)c4cnc(N)nc4)nc12)CCN3, the IC50 (second compound 0.00316 µM) was greater than 100 nM, the IC50 (second compound 0.01 µM) was greater than 100 nM and the IC50 (second compound 0.0316 µM) was greater than 100 nM. For the same compound, the IC50 (second compound 0.1 µM) was greater than 100 nM, the IC50 (second compound 0.316 µM) was greater than 100 nM and the IC50 (second compound 1 µM) was greater than 100 nM. It also gave a viability, T/C [1] of 108%, a viability, T/C [2] of 101% and a viability, T/C [3] of 104%. For the same compound, the viability, T/C [4] was 119%, the viability, T/C [5] was 113% and the viability, T/C [6] was 108%. For the same compound, the viability, T/C [7] was 97.4%, the viability, T/C [8] was 99.5% and the viability, T/C [9] was 95.9%. For the same compound, the viability, T/C [10] was 99.5%, the viability, T/C [11] was 98.5% and the viability, T/C [12] was 99.8%. For the same compound, the viability, T/C [13] was 96.2%, the viability, T/C [14] was 86% and the viability, T/C [15] was 90.5%. It also gave a viability, T/C [16] of 98.7%, a viability, T/C [17] of 105% and a viability, T/C [18] of 99.8%. For the same compound, the viability, T/C [19] was 77.8%, the viability, T/C [20] was 82.3% and the viability, T/C [21] was 97.6%. The viability, T/C [22] was 77.8%, the viability, T/C [23] was 83.9% and the viability, T/C [24] was 84.1%. It also gave a viability, T/C [25] of 71.6%, a viability, T/C [26] of 75.5% and a viability, T/C [27] of 70.7%. The viability, T/C [28] was 72.6%, the viability, T/C [29] was 82.8% and the viability, T/C [30] was 84.6%. The viability, T/C [31] was 60.7%, the viability, T/C [32] was 56.7% and the viability, T/C [33] was 69.3%. The viability, T/C [34] was 61.5%, the viability, T/C [35] was 59.7% and the viability, T/C [36] was 52.4%.
Compound CC(C)n1nc(-c2ccc3oc(N)nc3c2)c2c(N)ncnc21 + COc1c(OCCCN2CCOCC2)ccc2c3n(c(=NC(=O)c4cnc(N)nc4)nc12)CCN3 has an IC50 (second compound 0.00316 µM) greater than 100 nM, an IC50 (second compound 0.01 µM) greater than 100 nM and an IC50 (second compound 0.0316 µM) greater than 100 nM. It also gave an IC50 (second compound 0.1 µM) of 98.7 nM, an IC50 (second compound 0.316 µM) of 49 nM and an IC50 (second compound 1 µM) of 34.4 nM. For the same compound, the viability, T/C [1] was 96.8%, the viability, T/C [2] was 99.5% and the viability, T/C [3] was 84.6%. For the same compound, the viability, T/C [4] was 73.2%, the viability, T/C [5] was 81.4% and the viability, T/C [6] was 56.9%. The viability, T/C [7] was 96.5%, the viability, T/C [8] was 90.7% and the viability, T/C [9] was 97.4%. For the same compound, the viability, T/C [10] was 92%, the viability, T/C [11] was 75.2% and the viability, T/C [12] was 64.3%. The viability, T/C [13] was 91.4%, the viability, T/C [14] was 85.8% and the viability, T/C [15] was 101%. It also gave a viability, T/C [16] of 82%, a viability, T/C [17] of 81.9% and a viability, T/C [18] of 51.7%. It also gave a viability, T/C [19] of 95.2%, a viability, T/C [20] of 84.8% and a viability, T/C [21] of 78.8%. The viability, T/C [22] was 79.6%, the viability, T/C [23] was 68.8% and the viability, T/C [24] was 48.3%. For the same compound, the viability, T/C [25] was 71.7%, the viability, T/C [26] was 67.6% and the viability, T/C [27] was 68.2%. The viability, T/C [28] was 73%, the viability, T/C [29] was 56.5% and the viability, T/C [30] was 35.2%. The viability, T/C [31] was 60.8%, the viability, T/C [32] was 56.7% and the viability, T/C [33] was 59.5%. The viability, T/C [34] was 55.6%, the viability, T/C [35] was 51.6% and the viability, T/C [36] was 35.6%.
In the case of CCCS(=O)(=O)Nc1ccc(F)c(C(=O)c2c[nH]c3ncc(-c4ccc(Cl)cc4)cc23)c1F + COc1c(OCCCN2CCOCC2)ccc2c3n(c(=NC(=O)c4cnc(N)nc4)nc12)CCN3, the IC50 (second compound 0.00316 µM) is reported as greater than 10000 nM, the IC50 (second compound 0.01 µM) is reported as greater than 10000 nM and the IC50 (second compound 0.0316 µM) is reported as greater than 10000 nM. For the same compound, the IC50 (second compound 0.1 µM) was greater than 10000 nM, the IC50 (second compound 0.316 µM) was greater than 10000 nM and the IC50 (second compound 1 µM) was greater than 10000 nM. For the same compound, the viability, T/C [5] was 102%, the viability, T/C [6] was 85.2% and the viability, T/C [37] was 98.7%. It also gave a viability, T/C [38] of 103%, a viability, T/C [39] of 98.4% and a viability, T/C [40] of 105%. It also gave a viability, T/C [11] of 94%, a viability, T/C [12] of 99.5% and a viability, T/C [41] of 87.7%. For the same compound, the viability, T/C [42] was 86.9%, the viability, T/C [43] was 94.2% and the viability, T/C [44] was 100%. For the same compound, the viability, T/C [17] was 91.9%, the viability, T/C [18] was 91.1% and the viability, T/C [45] was 93.8%. The viability, T/C [46] was 94.8%, the viability, T/C [47] was 83.2% and the viability, T/C [48] was 87.4%. It also gave a viability, T/C [23] of 83%, a viability, T/C [24] of 80% and a viability, T/C [49] of 84.5%. The viability, T/C [50] was 78.8%, the viability, T/C [51] was 66.4% and the viability, T/C [52] was 71.3%. The viability, T/C [29] was 67.6%, the viability, T/C [30] was 69.8% and the viability, T/C [53] was 64.9%. It also gave a viability, T/C [54] of 70.2%, a viability, T/C [55] of 57.5% and a viability, T/C [56] of 64.6%. The viability, T/C [35] was 62.5%, the viability, T/C [36] was 64.1% and the viability, T/C [57] was 79.8%. The viability, T/C [58] was 57.9%, the viability, T/C [59] was 73.3% and the viability, T/C [60] was 58.1%.
In the case of CNC(=O)c1ccc(N2C(=S)N(c3ccc(C#N)c(C(F)(F)F)c3)C(=O)C2(C)C)cc1F + COc1c(OCCCN2CCOCC2)ccc2c3n(c(=NC(=O)c4cnc(N)nc4)nc12)CCN3, the IC50 (second compound 0.00316 µM) is reported as greater than 10000 nM, the IC50 (second compound 0.01 µM) is reported as greater than 10000 nM and the IC50 (second compound 0.0316 µM) is reported as greater than 10000 nM. It also gave an IC50 (second compound 0.1 µM) greater than 10000 nM, an IC50 (second compound 0.316 µM) greater than 10000 nM and an IC50 (second compound 1 µM) greater than 10000 nM. It also gave a viability, T/C [5] of 99.1%, a viability, T/C [6] of 107% and a viability, T/C [37] of 101%. The viability, T/C [38] was 95.8%, the viability, T/C [39] was 103% and the viability, T/C [40] was 108%. For the same compound, the viability, T/C [11] was 96.6%, the viability, T/C [12] was 94.7% and the viability, T/C [41] was 102%. It also gave a viability, T/C [42] of 97.5%, a viability, T/C [43] of 100% and a viability, T/C [44] of 96.2%. For the same compound, the viability, T/C [17] was 76%, the viability, T/C [18] was 88.5% and the viability, T/C [45] was 89.7%. It also gave a viability, T/C [46] of 98.1%, a viability, T/C [47] of 91.9% and a viability, T/C [48] of 107%. It also gave a viability, T/C [23] of 75.7%, a viability, T/C [24] of 68.5% and a viability, T/C [49] of 83.1%. For the same compound, the viability, T/C [50] was 81%, the viability, T/C [51] was 89.4% and the viability, T/C [52] was 87.3%. It also gave a viability, T/C [29] of 76.6%, a viability, T/C [30] of 68.1% and a viability, T/C [53] of 71.7%. It also gave a viability, T/C [54] of 80.9%, a viability, T/C [55] of 70.5% and a viability, T/C [56] of 72%. For the same compound, the viability, T/C [35] was 72.5%, the viability, T/C [36] was 72% and the viability, T/C [57] was 50.6%. The viability, T/C [58] was 60.1%, the viability, T/C [59] was 63.5% and the viability, T/C [60] was 61.5%.
